From patent US20240024488A1, “COMPOUNDS AND USES THEREOF” (Foghorn Therapeutics Inc., priority 2020, published 2024) come the findings set out here.

The target of test [1] is T1, HiBit-BRG1 fusion protein (Homo sapiens, UniProt P51532).
T1 construct: expressed in transfected cells
Put plainly: HiBiT-BRG1 cell-based degradation assay (Nano-Glo HiBiT Lytic Detection, 24 h). The conditions noted are these: HeLa cell line expressing HiBit-BRG1 and LgBit; for Dmax: read-out: BRG1 HiBit Degradation Maximum (%); for DC50: read-out: BRMG1 HiBit Degradation IC50. In short, it runs like this:
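Luminescence from Nano-Glo HiBiT lytic detection, read after 24 h compound exposure, scored degradation in a stable HeLa HiBiT-BRG1/LgBit line seeded at 5000 cells/well. DMSO wells defined 0% and 2 μM known BRM/BRG1 degrader wells defined full degradation.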
For orientation: With HiBiT, luminescence reflects the tagged protein that the partner subunit can reach.

For test [2], the target named is T2, HiBit-BRM fusion protein (Homo sapiens, UniProt P51531).
T2 construct: expressed in transfected cells
T2 sequence (P51531 whole entry, the tested form may be a part): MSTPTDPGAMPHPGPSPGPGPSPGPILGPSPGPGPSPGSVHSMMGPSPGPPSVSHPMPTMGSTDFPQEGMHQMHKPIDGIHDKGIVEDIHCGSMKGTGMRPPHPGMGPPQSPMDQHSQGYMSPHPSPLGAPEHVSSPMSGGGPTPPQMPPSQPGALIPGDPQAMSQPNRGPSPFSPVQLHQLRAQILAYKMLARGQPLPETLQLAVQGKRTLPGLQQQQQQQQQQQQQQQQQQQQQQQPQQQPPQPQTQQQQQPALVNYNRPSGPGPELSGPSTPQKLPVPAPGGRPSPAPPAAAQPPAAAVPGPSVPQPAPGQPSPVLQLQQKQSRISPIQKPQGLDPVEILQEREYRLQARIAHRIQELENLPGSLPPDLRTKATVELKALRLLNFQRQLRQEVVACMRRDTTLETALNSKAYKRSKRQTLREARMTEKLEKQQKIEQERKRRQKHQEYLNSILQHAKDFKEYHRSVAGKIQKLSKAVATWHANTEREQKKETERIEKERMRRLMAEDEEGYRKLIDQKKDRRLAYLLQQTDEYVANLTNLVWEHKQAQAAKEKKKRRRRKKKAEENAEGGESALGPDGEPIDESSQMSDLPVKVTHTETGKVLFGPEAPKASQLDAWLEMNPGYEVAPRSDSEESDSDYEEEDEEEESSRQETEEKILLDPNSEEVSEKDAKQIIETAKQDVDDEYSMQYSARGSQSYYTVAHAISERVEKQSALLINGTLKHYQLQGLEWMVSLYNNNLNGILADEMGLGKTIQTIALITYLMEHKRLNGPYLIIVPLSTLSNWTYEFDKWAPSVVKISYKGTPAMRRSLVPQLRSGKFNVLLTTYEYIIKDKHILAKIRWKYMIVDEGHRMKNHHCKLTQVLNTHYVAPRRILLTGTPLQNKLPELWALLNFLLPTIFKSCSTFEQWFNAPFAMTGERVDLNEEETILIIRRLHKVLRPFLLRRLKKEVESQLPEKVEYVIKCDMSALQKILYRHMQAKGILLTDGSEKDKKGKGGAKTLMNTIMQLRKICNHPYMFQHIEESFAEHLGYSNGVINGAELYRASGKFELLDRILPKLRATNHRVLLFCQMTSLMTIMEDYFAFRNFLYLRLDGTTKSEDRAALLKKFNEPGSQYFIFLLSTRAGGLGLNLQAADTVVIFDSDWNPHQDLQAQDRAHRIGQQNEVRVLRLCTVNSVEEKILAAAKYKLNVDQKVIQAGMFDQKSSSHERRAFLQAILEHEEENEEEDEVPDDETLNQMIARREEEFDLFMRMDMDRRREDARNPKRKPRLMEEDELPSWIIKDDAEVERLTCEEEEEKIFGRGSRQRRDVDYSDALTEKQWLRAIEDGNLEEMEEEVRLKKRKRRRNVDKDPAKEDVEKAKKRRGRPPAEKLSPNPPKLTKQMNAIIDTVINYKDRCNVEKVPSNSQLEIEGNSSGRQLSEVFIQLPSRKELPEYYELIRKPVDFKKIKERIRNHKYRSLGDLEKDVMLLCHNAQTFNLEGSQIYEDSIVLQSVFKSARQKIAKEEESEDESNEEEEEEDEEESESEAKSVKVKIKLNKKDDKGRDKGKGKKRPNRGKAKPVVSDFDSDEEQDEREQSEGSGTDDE
Put plainly: HiBiT-BRM cell-based degradation assay (Nano-Glo HiBiT Lytic Detection, 24 h). The settings on record: HeLa cell line expressing HiBiT-BRM; for DC50: read-out: BRM HiBit Degradation IC50. In short, it runs like this:
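HeLa cells stably expressing HiBiT-BRM were dosed with compounds (10-point 3-fold dilutions, 30 μM final top dose, duplicate) for 24 h. HiBiT signal was read by lytic LgBiT complementation luminescence. Percent degradation was normalised to DMSO (high control) and 2 μM of a reference BRM/BRG1 degrader (low control).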

T1 sequence (P51532 whole entry, the tested form may be a part): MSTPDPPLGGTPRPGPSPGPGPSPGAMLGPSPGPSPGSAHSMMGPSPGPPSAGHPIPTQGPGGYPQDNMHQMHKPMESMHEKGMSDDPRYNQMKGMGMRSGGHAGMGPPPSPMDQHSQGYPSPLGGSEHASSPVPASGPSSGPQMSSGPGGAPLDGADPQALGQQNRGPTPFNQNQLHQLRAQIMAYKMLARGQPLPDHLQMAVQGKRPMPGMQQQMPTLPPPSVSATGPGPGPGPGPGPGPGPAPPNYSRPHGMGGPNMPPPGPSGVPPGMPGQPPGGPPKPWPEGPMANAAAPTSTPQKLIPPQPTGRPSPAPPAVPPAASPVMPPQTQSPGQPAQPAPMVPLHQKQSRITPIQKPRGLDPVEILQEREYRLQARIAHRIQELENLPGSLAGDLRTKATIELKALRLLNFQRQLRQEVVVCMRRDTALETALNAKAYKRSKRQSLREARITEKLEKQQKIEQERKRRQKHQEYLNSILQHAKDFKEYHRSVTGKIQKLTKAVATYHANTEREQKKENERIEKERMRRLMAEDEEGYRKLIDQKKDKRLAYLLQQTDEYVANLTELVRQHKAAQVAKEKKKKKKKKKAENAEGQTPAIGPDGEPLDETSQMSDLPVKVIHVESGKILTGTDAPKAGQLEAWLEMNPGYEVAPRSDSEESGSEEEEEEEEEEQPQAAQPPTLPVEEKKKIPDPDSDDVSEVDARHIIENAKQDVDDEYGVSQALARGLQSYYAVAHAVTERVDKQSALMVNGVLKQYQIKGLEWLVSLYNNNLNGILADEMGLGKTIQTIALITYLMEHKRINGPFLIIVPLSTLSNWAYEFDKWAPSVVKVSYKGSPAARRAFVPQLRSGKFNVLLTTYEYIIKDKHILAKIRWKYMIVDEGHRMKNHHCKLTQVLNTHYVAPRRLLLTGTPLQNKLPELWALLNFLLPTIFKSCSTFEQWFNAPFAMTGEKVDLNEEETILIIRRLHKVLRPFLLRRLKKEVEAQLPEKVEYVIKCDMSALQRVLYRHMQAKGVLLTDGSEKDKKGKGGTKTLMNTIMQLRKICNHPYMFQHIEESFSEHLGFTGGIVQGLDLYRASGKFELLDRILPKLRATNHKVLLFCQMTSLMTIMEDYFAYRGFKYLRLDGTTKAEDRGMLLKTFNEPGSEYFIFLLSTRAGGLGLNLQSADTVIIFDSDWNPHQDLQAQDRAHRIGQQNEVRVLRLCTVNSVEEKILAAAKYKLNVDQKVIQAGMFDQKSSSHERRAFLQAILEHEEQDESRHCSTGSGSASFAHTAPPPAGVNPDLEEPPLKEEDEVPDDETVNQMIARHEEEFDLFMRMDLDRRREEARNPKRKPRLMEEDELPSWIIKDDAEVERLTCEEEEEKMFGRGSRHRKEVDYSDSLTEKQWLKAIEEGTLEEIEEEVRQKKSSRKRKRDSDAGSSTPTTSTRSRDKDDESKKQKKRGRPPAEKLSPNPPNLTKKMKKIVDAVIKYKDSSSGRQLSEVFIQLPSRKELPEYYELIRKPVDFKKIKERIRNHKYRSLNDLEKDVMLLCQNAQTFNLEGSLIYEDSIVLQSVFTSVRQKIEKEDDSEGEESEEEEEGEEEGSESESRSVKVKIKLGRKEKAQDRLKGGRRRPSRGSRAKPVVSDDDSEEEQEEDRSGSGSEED

With `Cc1ncsc1-c1ccc(CNC(=O)[C@@H]2C[C@@H](O)CN2C(=O)[C@@H](NC(=O)CCCCCCCC(=O)N2CC(c3cc4cc(-c5ccccc5O)nnc4[nH]3)C2)C(C)(C)C)cc1` [Compound 10, (2S,4R)-4-hydroxy-1-((S)-2-(9-(3-(3-(2-hydroxyphenyl)-7H-pyrrolo[2,3-c]pyridazin-6-yl)azetidin-1-yl)-9-oxononanamido)-3,3-dimethylbutanoyl)-N-(4-(4-methylthiazol-5-yl)benzyl)pyrrolidine-2-carboxamide], in test [1], the Dmax was less than 50%. In addition, in test [2], the “BRM HiBit Degradation Maximum (%)” value is given as “B (“B” indicates maximum degradation ≥ 50%)” and the DC50 is more than 1000 nM.
As to `O=C1CCC(N2C(=O)c3cccc(OCCCC(=O)N4CC(c5cc6cc(-c7ccccc7O)nnc6[nH]5)C4)c3C2=O)C(=O)N1` (centres unmarked) [Compound 8, 2-(2,6-dioxopiperidin-3-yl)-4-(4-(3-(3-(2-hydroxyphenyl)-7H-pyrrolo[2,3-c]pyridazin-6-yl)azetidin-1-yl)-4-oxobutoxy)isoindoline-1,3-dione], in test [1], the Dmax was more than 75% and the DC50 was more than 1000 nM. Moreover, in test [2], the “BRM HiBit Degradation Maximum (%)” value is listed as “A (“A” indicates maximum degradation ≥ 75%)” and the DC50 is more than 1000 nM.
Consider `Cc1ncsc1-c1ccc([C@H](C)NC(=O)[C@@H]2C[C@@H](O)CN2C(=O)C(c2cc(N3CCC(C(=O)N4CC(c5cc6cc(-c7ccccc7O)nnc6[nH]5)C4)CC3)no2)C(C)C)cc1` (mixture of isomers) [Compound 264, (2S,4R)-4-hydroxy-1-((R)-2-(3-(4-(3-(3-(2-hydroxyphenyl)-7H-pyrrolo[2,3-c]pyridazin-6-yl)azetidine-1-carbonyl)piperidin-1-yl)isoxazol-5-yl)-3-methylbutanoyl)-N-((S)-1-(4-(4-methylthiazol-5-yl)phenyl)ethyl)pyrrolidine-2-carboxamide], for which, in test [1], the Dmax is less than 50%. In test [2], the “BRM HiBit Degradation Maximum (%)” value is listed as “C (“C” indicates maximum degradation < 50%)”.
Consider `Cc1ncsc1-c1ccc([C@H](C)NC(=O)[C@@H]2C[C@@H](O)CN2C(=O)[C@@H](c2cc(OCCN3C[C@@H]4[C@H](C3)[C@H]4c3[nH]c4nnc(-c5ccccc5O)cc4c3C)no2)C(C)C)cc1` [Compound 272, (2S,4R)-4-hydroxy-1-((R)-2-(3-(2-((1R,5S,6R)-6-(3-(2-hydroxyphenyl)-5-methyl-7H-pyrrolo[2,3-c]pyridazin-6-yl)-3-azabicyclo[3.1.0]hexan-3-yl)ethoxy)isoxazol-5-yl)-3-methylbutanoyl)-N-((S)-1-(4-(4-methylthiazol-5-yl)phenyl)ethyl)pyrrolidine-2-carboxamide], for which, in test [1], the Dmax is more than 75% and the DC50 was more than 10 nM. Besides, in test [2], the “BRM HiBit Degradation Maximum (%)” value is given as “A (“A” indicates maximum degradation ≥ 75%)” and the DC50 was less than 10 nM.
For `Cc1ncsc1-c1ccc([C@H](C)NC(=O)[C@@H]2C[C@@H](O)CN2C(=O)[C@@H](c2cc(N3CCC(N(C)[C@H]4CCc5[nH]c6nnc(-c7ccccc7O)cc6c5C4)CC3)no2)C(C)C)cc1` (racemic) [Compound 111, (2S,4R)-4-hydroxy-1-((R)-2-(3-(4-(((S)-3-(2-hydroxyphenyl)-6,7,8,9-tetrahydro-5H-pyridazino[3,4-b]indol-6-yl)(methyl)amino)piperidin-1-yl)isoxazol-5-yl)-3-methylbutanoyl)-N-((S)-1-(4-(4-methylthiazol-5-yl)phenyl)ethyl)pyrrolidine-2-carboxamide], in test [1], the Dmax was more than 50% and the DC50 is more than 100 nM. In addition, in test [2], the “BRM HiBit Degradation Maximum (%)” value is on record as “A (“A” indicates maximum degradation ≥ 75%)” and the DC50 is more than 10 nM.
Turning to `Cc1ncsc1-c1ccc([C@H](C)NC(=O)[C@@H]2C[C@@H](O)CN2C(=O)[C@@H](c2cc(N3CCN(C(=O)N4CC(c5cc6cc(-c7ccccc7O)nnc6[nH]5)C4)CC3)no2)C(C)C)cc1` (racemic) [Compound 124, (2S,4R)-4-hydroxy-1-[(2R)-2-[3-(4-{3-[3-(2-hydroxyphenyl)-7H-pyrrolo[2,3-c]pyridazin-6-yl]azetidine-1-carbonyl}piperazin-1-yl)-1,2-oxazol-5-yl]-3-methylbutanoyl]-N-[(1S)-1-[4-(4-methyl-1,3-thiazol-5-yl)phenyl]ethyl]pyrrolidine-2-carboxamide], the DC50 in test [1] was more than 100 nM. Further, in test [2], the “BRM HiBit Degradation Maximum (%)” value is listed as “A (“A” indicates maximum degradation ≥ 75%)” and the DC50 is more than 10 nM.
Turning to `Cc1ncsc1-c1ccc(CNC(=O)[C@@H]2C[C@@H](O)CN2C(=O)[C@@H](NC(=O)CCCCCNC(=O)[C@H]2CCc3[nH]c4nnc(-c5ccccc5O)cc4c3C2)C(C)(C)C)cc1` (racemic) [Compound 189, (S)-N-(6-(((S)-1-((2S,4R)-4-hydroxy-2-((4-(4-methylthiazol-5-yl)benzyl)carbamoyl)pyrrolidin-1-yl)-3,3-dimethyl-1-oxobutan-2-yl)amino)-6-oxohexyl)-3-(2-hydroxyphenyl)-6,7,8,9-tetrahydro-5H-pyridazino[3,4-b]indole-6-carboxamide], the Dmax in test [1] is less than 50%. Also, the “BRM HiBit Degradation Maximum (%)” value in test [2] is “C (“C” indicates maximum degradation < 50%)”.
As to `Cc1ncsc1-c1ccc([C@H](C)NC(=O)[C@@H]2C[C@@H](O)CN2C(=O)[C@@H](c2cc(N3CCC(N4CC5(Cc6cc(-c7ccccc7O)nnc6N5)C4)CC3)no2)C(C)C)cc1` (racemic) [Compound 98, (2S,4R)-4-hydroxy-1-((R)-2-(3-(4-(3′-(2-hydroxyphenyl)-5′,7′-dihydrospiro[azetidine-3,6′-pyrrolo[2,3-c]pyridazin]-1-yl)piperidin-1-yl)isoxazol-5-yl)-3-methylbutanoyl)-N-((S)-1-(4-(4-methylthiazol-5-yl)phenyl)ethyl)pyrrolidine-2-carboxamide], the Dmax in test [1] was less than 50%. For the same compound, in test [2], the “BRM HiBit Degradation Maximum (%)” value is reported as “A (“A” indicates maximum degradation ≥ 75%)” and the DC50 is more than 10 nM.
On to `Cc1ncsc1-c1ccc(CNC(=O)[C@@H]2C[C@@H](O)CN2C(=O)[C@@H](NC(=O)CNC(=O)[C@@H]2CCc3[nH]c4nnc(-c5ccccc5O)cc4c3C2)C(C)(C)C)cc1` (single isomer, unassigned) [Compound 197], for which the Dmax in test [1] is less than 50%. Further, the “BRM HiBit Degradation Maximum (%)” value in test [2] is “C (“C” indicates maximum degradation < 50%)”.
For `Cc1ncsc1-c1ccc([C@H](C)NC(=O)[C@@H]2C[C@@H](O)CN2C(=O)[C@@H](c2cc(N3CCN(CC45CC(c6cc7cc(-c8ccccc8O)nnc7[nH]6)(C4)C5)CC3)no2)C(C)C)cc1` (single isomer, unassigned) [Compound 233], in test [1], the Dmax was more than 75% and the DC50 is more than 10 nM. Moreover, in test [2], the “BRM HiBit Degradation Maximum (%)” value was “A (“A” indicates maximum degradation ≥ 75%)” and the DC50 was more than 10 nM.
On to `Cc1ncsc1-c1ccc([C@H](C)NC(=O)[C@@H]2C[C@@H](O)CN2C(=O)[C@@H](c2cc(OCCN3C[C@@H]4[C@H](C3)[C@H]4c3cc4cc(-c5cc(F)ccc5O)nnc4[nH]3)no2)C(C)C)cc1` (racemic) [Compound 224, (2S,4R)-1-((R)-2-(3-(2-((1R,5S,6R)-6-(3-(5-fluoro-2-hydroxyphenyl)-7H-pyrrolo[2,3-c]pyridazin-6-yl)-3-azabicyclo[3.1.0]hexan-3-yl)ethoxy)isoxazol-5-yl)-3-methylbutanoyl)-4-hydroxy-N-((S)-1-(4-(4-methylthiazol-5-yl)phenyl)ethyl)pyrrolidine-2-carboxamide], for which, in test [1], the Dmax was more than 50% and the DC50 is more than 1000 nM. In addition, in test [2], the “BRM HiBit Degradation Maximum (%)” value was “A (“A” indicates maximum degradation ≥ 75%)” and the DC50 was more than 10 nM.
For `Cc1ncsc1-c1ccc([C@H](C)NC(=O)[C@@H]2C[C@@H](O)CN2C(=O)[C@@H](c2cc(N3C[C@H]4C[C@@H]3CN4C(=O)[C@H]3C[C@]4(Cc5cc(-c6ccccc6O)nnc5N4)C3)no2)C(C)C)cc1` (racemic) [Compound 76, (2S,4R)-4-hydroxy-1-((R)-2-(3-((1R,4R)-5-((1S,3r)-3′-(2-hydroxyphenyl)-5′,7′-dihydrospiro[cyclobutane-1,6′-pyrrolo[2,3-c]pyridazine]-3-carbonyl)-2,5-diazabicyclo[2.2.1]heptan-2-yl)isoxazol-5-yl)-3-methylbutanoyl)-N-((S)-1-(4-(4-methylthiazol-5-yl)phenyl)ethyl)pyrrolidine-2-carboxamide], the Dmax in test [1] was less than 50%. In addition, in test [2], the “BRM HiBit Degradation Maximum (%)” value was “A (“A” indicates maximum degradation ≥ 75%)” and the DC50 is more than 100 nM.
As to `Cc1ncsc1-c1ccc([C@H](C)NC(=O)[C@@H]2C[C@@H](O)CN2C(=O)C(c2cc(OCCNC3(C(=O)O)CCc4[nH]c5nnc(-c6ccccc6O)cc5c4C3)no2)C(C)C)cc1` (relative stereo) [Compound 90, (6R*)-6-({2-[(5-{1-[(2S,4R)-4-hydroxy-2-{[(1S)-1-[4-(4-methyl-1,3-thiazol-5-yl)phenyl]ethyl]carbamoyl}pyrrolidin-1-yl]-3-methyl-1-oxobutan-2-yl}-1,2-oxazol-3-yl)oxy]ethyl}amino)-3-(2-hydroxyphenyl)-5H,7H,8H,9H-pyridazino[3,4-b]indole-6-carboxylic acid], the Dmax in test [1] was less than 50%. Besides, in test [2], the “BRM HiBit Degradation Maximum (%)” value is listed as “A (“A” indicates maximum degradation ≥ 75%)” and the DC50 is more than 1000 nM.
